Key:
[1] = system: Isocitrate dehydrogenase [NADP] cytoplasmic (Homo sapiens), O75874 [R132H]; assay: Inhibition of human IDH1 R132H mutant expressed in IPTG-induced Escherichia coli BL21 cells assessed as oxidation of NADPH to NADP+ after 5 mins by spectrophotometry; parameters: concentration or dose not given beside the values
[2] = molecular target: Isocitrate dehydrogenase [NADP] cytoplasmic (Homo sapiens) (UniProt O75874); assay: Inhibition of human IDH1 expressed in IPTG-induced Escherichia coli BL21 cells assessed as reduction of NADP+ to NADPH after 5 mins by spectrophotometry; parameters: concentration or dose not given beside the values
Chain of Isocitrate dehydrogenase [NADP] cytoplasmic (Homo sapiens) (O75874 whole entry): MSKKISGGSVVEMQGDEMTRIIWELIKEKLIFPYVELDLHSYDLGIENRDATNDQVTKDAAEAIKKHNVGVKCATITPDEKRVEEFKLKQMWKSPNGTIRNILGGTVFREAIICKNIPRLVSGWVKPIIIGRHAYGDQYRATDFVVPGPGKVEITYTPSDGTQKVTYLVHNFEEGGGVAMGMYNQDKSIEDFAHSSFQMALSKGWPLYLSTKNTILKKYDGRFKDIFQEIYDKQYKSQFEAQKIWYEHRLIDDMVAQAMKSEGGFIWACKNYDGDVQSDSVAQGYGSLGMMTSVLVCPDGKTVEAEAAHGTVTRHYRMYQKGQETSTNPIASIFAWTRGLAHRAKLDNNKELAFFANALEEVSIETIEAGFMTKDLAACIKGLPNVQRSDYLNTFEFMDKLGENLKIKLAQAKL

Chain of Isocitrate dehydrogenase [NADP] cytoplasmic (Homo sapiens), O75874 [R132H] (O75874 whole entry R132H): as the sequence (O75874 whole entry) above, with R132H counted along it

Row | Structure (SMILES) | Activity [1] | Activity [2]
1 | CC(C)=CCC[C@](C)(O[C@@H]1O[C@H](CO[C@@H]2O[C@H](CO)[C@@H](O)[C@H](O)[C@H]2O)[C@@H](O)[C@H](O)[C@H]1O)[C@H]1CC[C@]2(C)[C@@H]1[C@H](O)C[C@@H]1[C@@]3(C)CC[C@H](O[C@@H]4O[C@H](CO)[C@@H](O)[C@H](O)[C@H]4O[C@@H]4O[C@H](CO)[C@@H](O)[C@H](O)[C@H]4O)C(C)(C)[C@@H]3CC[C@]12C | 105% | 117%
2 | O=c1cc(-c2ccccc2)oc2cc(O)cc(O)c12 | 96.7% | 97.6%
3 | COc1ccc(-c2oc3c(CC=C(C)C)c(O)cc(O)c3c(=O)c2O)cc1 | 94.6% | 97.9%
4 | O=C(O)[C@H]1O[C@@H](Oc2cc3oc(-c4ccc(O)cc4)cc(=O)c3c(O)c2O)[C@H](O)[C@@H](O)[C@@H]1O | 91.5% | 88.8%
5 | O=c1c(O)c(-c2cc(O)c(O)c(O)c2)oc2cc(O)cc(O)c12 | 93.2% | 95.5%
6 | CC[C@H](CC[C@@H](C)[C@H]1CC[C@H]2[C@@H]3CC=C4C[C@@H](O)CC[C@]4(C)[C@H]3CC[C@]12C)C(C)C | 98.8% | 105%
7 | C=C(C)C(C)CC[C@@H](C)[C@H]1CC[C@@]2(C)[C@@H]3CC[C@H]4C(C)(C)C(=O)CC[C@]4(C)C3=CC[C@]12C (stereo partly drawn) | 124% | 106%
8 | CC(C)CCC[C@@H](C)[C@H]1CC[C@H]2[C@@H]3CC=C4C[C@@H](O)CC[C@]4(C)[C@H]3CC[C@]12C | 96.3% | 105%
9 | COc1c2c(cc3oc(C)cc(=O)c13)OC(C(C)(C)O)C2 (stereo not drawn) | 105% | 103%
10 | O=c1cc(-c2ccc(O)c(O)c2)oc2cc(O)cc(O)c12 | 93.6% | 96.8%
11 | Cc1cc(=O)c2c(O)c3c(cc2o1)OC(C)(C)[C@@H](O)C3 | 105% | 98.2%
12 | C/C=C(/C)C(=O)O[C@H]1Cc2c(cc3oc(C)cc(=O)c3c2O)OC1(C)C | 105% | 97.8%
13 | C=C[C@]1(C)CC[C@@]2(C)C3=CCC[C@](C)(CO)[C@@H]3CC[C@@H]2C1 | 116% | 106%
14 | CC(C)=CCC[C@](C)(O[C@@H]1O[C@H](CO[C@@H]2O[C@H](CO)[C@@H](O)[C@H](O)[C@H]2O)[C@@H](O)[C@H](O)[C@H]1O)[C@H]1CC[C@]2(C)[C@@H]1[C@H](O)C[C@@H]1[C@@]3(C)CC[C@H](O[C@@H]4O[C@H](CO)[C@@H](O)[C@H](O)[C@H]4O)C(C)(C)[C@@H]3CC[C@]12C | 102% | 122%
15 | COc1ccc(-c2oc3c(CC=C(C)C)c(O[C@@H]4O[C@H](CO)[C@@H](O)[C@H](O)[C@H]4O)cc(O)c3c(=O)c2O[C@@H]2O[C@@H](C)[C@H](O)[C@@H](O)[C@H]2O)cc1 | 104% | 90.4%
16 | C[C@@H](C(=O)O)[C@@]1(C)CC[C@H]2[C@@](C)(CC[C@@]3(C)[C@@H]4CC(C)(C)CC[C@]4(C)CC[C@]23C)[C@@H]1CC(=O)O | 90.9% | 108%
17 | O=C(/C=C/c1ccc(O)cc1)c1ccc(O)cc1O | 98.1% | 94.6%
18 | CC1(C)CC[C@]2(C)CC[C@]3(C)C(=CC[C@@H]4[C@@]5(C)CC[C@H](O)C(C)(C)[C@@H]5[C@H](O)C[C@]43C)[C@@H]2C1 | 114% | 102%
19 | COc1ccc(-c2cc(=O)c3c(O)cc(O[C@@H]4O[C@H](CO)[C@@H](O)[C@H](O)[C@H]4O)cc3o2)cc1O | 112% | 108%
20 | CCCCCCCCCCCCC/C=C1/C(=O)O[C@H](C)[C@@H]1O | 114% | 111%
21 | O=c1c(O)c(-c2ccc(O)cc2)oc2cc(O)cc(O)c12 | 112% | 104%
22 | CC1(C)CC[C@]2(C(=O)O)CC=C3[C@]4(C)CC[C@H]5C(C)(C)[C@@H](O)CC[C@]5(C)[C@H]4CC[C@@]3(C)[C@@H]2C1 | 113% | 103%
23 | O=c1cc(-c2ccc(O)cc2)oc2cc(O)cc(O)c12 | 84% | 97.4%
24 | C=C1CC[C@@H]2[C@H]([C@H]3[C@H]1CC[C@]3(C)O)C2(C)C | 107% | 106%
25 | CC1(C)CC[C@]2(C(=O)O)CC[C@]3(C)C(=CC[C@@H]4[C@@]5(C)CC[C@H](O)C(C)(C)[C@@H]5CC[C@]43C)[C@@H]2C1 | 117% | 101%
26 | CC(C)=CCc1c(O)c(CC=C(C)C)c2oc3c(O)ccc(O)c3c(=O)c2c1O | 93.9% | 89.9%
27 | COc1c(O)cc2oc3cc(O)c4c(c3c(=O)c2c1CC=C(C)C)OC(C)(C)CC4 | 106% | 100%
28 | O=C(O[C@H]1[C@@H]2C=CO[C@@H](O[C@@H]3O[C@H](CO)[C@@H](O)[C@H](O)[C@H]3O)[C@@H]2[C@@]2(CO)O[C@@H]12)c1ccc(O)c(O)c1 | 107% | 88.3%
29 | O=C(/C=C/c1ccccc1)NCCCCNC(=O)c1ccc(O)cc1 | 106% | 100%
